Measured values reported in US20220169645A1, “COMPOUNDS AS BRUTON TYROSINE KINASE INHIBITORS, PREPARATION METHODS AND MEDICAL APPLICATIONS THEREOF” (Eternity Bioscience Inc., priority 2020, published 2022).

What was measured:
BTK-C481S = biological target: T1, BTK-C481S (Homo sapiens, UniProt Q06187, C481S); assay: BTK-C481S kinase activity assay (ADP-Glo); format: biochemical; details: BTK kinase inhibition, 30 min preincubation, 90 min reaction
T1 construct: purchased Abcam ABCAM 204166; host or cells: Baculovirus infected Sf9 cells
Experimental: (§1) These assays are to determine the degree of inhibition of the BTK-WT and BTK-C481S mutant kinase activity by measuring the amount of ADP produced during the enzymatic reactions. […] Compounds, BTK enzymes, ATP and substrate were all prepared in ix kinase assay buffer by diluting 5× stock of kinase assay buffer III (Signal Chem K03-09), in H2O, and adding DTT (Thermo ScientificA39255) for a final concentration of 50 μM. […] Then the plate was kept shaking for 30 min at room temperature to allow the binding of the compounds to the proteins. After the preincubation, ATP and the substrate, a total of 5 μL was added into each well. The plate was then spun down at 1000 rpm for 2 minutes and kept shaking for 90 min at room temperature. ADP detection was performed following the guidance from the ADP-Glo Kinase Assay kits (Promega V9101). Briefly, 10 μL of ADP-Glo reagent was added into each well. The plate was then spun down at 1000 rpm for 2 minutes and kept shaking at room temperature for 60 min. Twenty μL of the kinase detection solution was added into each well. The plate was incubated at room temperature for 30 min in dark. The plates were read for luminescence signals in Tecan M1000 directly following the 30 min incubation. Relative inhibition of BTK kinase activities were analyzed by calculating the luminescence signal change:
(§2) Data was input into GraphPad Prism, and the IC50 values were calculated using function “log(inhibitor) vs. response—Variable slope (four parameters)”.

BTK-C481S mutant = biological target: T2, BTK-C481S mutant (Homo sapiens, UniProt Q06187, C481S); assay: BTK-Y223 autophosphorylation in HEK293 cells stably expressing BTK-C481S (HTRF); format: cell-based; details: 2 hours treatment
T2 construct: host or cells: HEK293 (ATCC CRL1573), lentiviral transduction, puromycin selected
Experimental: (§3) HEK293 cells (purchased from ATCC, CRL1573) stably expressing wild type BTK or mutant C481S BTK were generated by lentiviral transduction of constructs containing human BTK-WT or BTK-C481S mutant (Genecopoeia, Lv201 vector). Cells expressing BTK proteins were selected with puromycin treatment (1 μM). The protein expression was confirmed by western blotting of BTK and BTK-Y223 autophosphorylation. The cells were cultured in MEM medium (Sigma M2279), 10% heat-Inactivated FBS (Gibco 10100), penicillin streptomycin (Thermal Fisher 15140122), and puromycin (InvivoGen QLL-41-03). The BTK-Y223 phosphorylation was quantified using BTK phospho-Y223 kit (Cisbio 63ADK017PEG). HEK293/BTK stable cells were seeded in a 96-well plate at a density of 10 thousand cells/well in a total volume of 100 μL of media. Cells were incubated overnight in a humidified, 5% CO2 cell culture incubator at 37° C. The next day, the cells were treated with diluted compounds in a humidified, 5% CO2 cell culture incubator at 37° C. for 2 hours. The medium was removed from each well, and 50 μL of 1× lysis buffer from the assay kit was added into each well. The cells were incubated for 30 min at room temperature with shaking. Then 16 μL of lysate was transferred to a PROXIPLATE 384-plate (PerkinElmer 6008230), followed by addition of 4 μL of HTRF pre-mixed antibodies. After incubation overnight at room temperature, fluorescence signals in the plates were read on PHERAstar FSX instrument, using HTRF settings ([…]).
(§4) The relative cellular pBTK inhibition was calculated by HTRF signal change: The average of positive control well reading, and average of negative control reading were used as controls to calculate inhibition percentage.
(§5) The data was input into GraphPad Prism, using function “log(inhibitor) vs. response—Variable slope (four parameters)” to get IC50 values.

[1] = tested on: human TMD-8 diffuse large B-cell lymphoma cells; assay: BTK-dependent cell proliferation in human TMD-8 cells (CellTiter-Glo); format: cell-based; details: TMD8, 72 h, TMD-8 DLBCL cells, 3 days, absolute IC50
Experimental: The human TMD-8 DLBCL cancer cells were cultured in RPMI media with high glucose and glutamine (Genesee 25-506), 20% heat-inactivated FBS (Gibco 10100), penicillin streptomycin (Thermal Fisher 15140122) and 1 mM sodium pyruvate (Thermal Fisher 11360070). TMD-8 cells were centrifuged at 300 g for 5 minutes and the cells were resuspended into fresh cell culture media. The cells were counted and made to a cell stock of 1.3 million/mL. Then 75 μL of cells were seeded into each well of a white 96-well cell culture plate (Corning 353286). A serial dilution of compounds was made and 25 μL was added to each well. The plates were incubated for 3 days in a humidified, 5% CO2 atmosphere at 37° C. Inhibition of cell growth by the compounds was determined by measuring the ATP level generated by the cells with the Cell Titer-Glo Luminescent Cell Viability Kit (Promega G7572). Assay procedures were conducted according to the protocols provided by Promega. In brief, the treated cell-culture plate and its contents were equilibrated at room temperature for approximately 30 minutes. 100 μL of CellTiter-Glo® Reagent was added into each cell-culture well, and contents were mixed for 2 minutes on an orbital shaker to induce cell lysis. The plate was incubated at room temperature for 10 minutes to stabilize luminescent signal. The resulting luminescence signal was immediately read using a TECAN plate reader. The relative cell grow inhibition was calculated by Cell Titer-Glo luminescent signal change.
The average readings of media-only wells and the readings of positive control wells (no compound treatment) were used to calculate response percentage.
The data was input into GraphPad Prism, and the curve fitting was made using function “log(inhibitor) vs. response—Variable slope (four parameters)”. The interpolation function was used to calculate absolute IC50 values.

human BTK-WT = biological target: T3, human BTK-WT (Homo sapiens, UniProt Q06187); assay: BTK-Y223 autophosphorylation in HEK293 cells stably expressing BTK-WT (HTRF); format: cell-based; details: 2 hours treatment
T3 construct: host or cells: HEK293 (ATCC CRL1573), lentiviral transduction, puromycin selected
Experimental: as §3, §4, §5

full-length human BTK-WT = biological target: T4, full-length human BTK-WT (Homo sapiens, UniProt Q06187); assay: BTK-WT kinase activity assay (ADP-Glo); format: biochemical; details: BTK kinase inhibition, 30 min preincubation, 90 min reaction
T4 construct: The full-length human BTK-WT (ABCAM205800); purchased Abcam ABCAM205800; host or cells: Baculovirus infected Sf9 cells
Experimental: as §1, §2

T1 sequence (Q06187 whole entry C481S): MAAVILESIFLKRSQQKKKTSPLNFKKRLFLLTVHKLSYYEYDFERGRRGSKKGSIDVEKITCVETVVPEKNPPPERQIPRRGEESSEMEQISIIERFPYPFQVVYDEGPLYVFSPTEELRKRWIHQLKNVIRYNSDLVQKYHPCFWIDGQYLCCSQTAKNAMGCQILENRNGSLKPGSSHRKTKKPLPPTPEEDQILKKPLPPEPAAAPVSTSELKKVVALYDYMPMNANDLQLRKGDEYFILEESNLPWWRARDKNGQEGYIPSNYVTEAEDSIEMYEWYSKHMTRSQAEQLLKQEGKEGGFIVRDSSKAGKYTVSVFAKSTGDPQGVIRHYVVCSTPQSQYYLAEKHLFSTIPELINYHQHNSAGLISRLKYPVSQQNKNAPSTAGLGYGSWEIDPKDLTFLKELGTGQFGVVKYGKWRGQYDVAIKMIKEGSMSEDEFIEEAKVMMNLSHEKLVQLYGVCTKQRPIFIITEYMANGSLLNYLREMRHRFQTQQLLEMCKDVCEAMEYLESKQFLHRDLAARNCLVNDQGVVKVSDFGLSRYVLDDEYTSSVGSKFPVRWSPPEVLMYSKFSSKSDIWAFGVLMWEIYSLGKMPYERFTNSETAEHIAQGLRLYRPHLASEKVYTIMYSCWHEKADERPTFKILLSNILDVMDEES
T2 sequence (Q06187 whole entry C481S): as above
T3 sequence (Q06187 whole entry): as the sequence (Q06187 whole entry C481S) above, with S481C counted along it
T4 sequence (Q06187 whole entry): as the sequence (Q06187 whole entry C481S) above, with S481C counted along it

Row | SMILES | IC50 (BTK-C481S) | IC50 (BTK-C481S mutant) | IC50 [1] | IC50 (human BTK-WT) | IC50 (full-length human BTK-WT)
1 | COc1ccc(F)cc1C(=O)NCc1ccc(-n2nc(C(C)C)c(N)c2C(N)=O)cc1 [Example A1, 4-amino-1-(4-((5-fluoro-2-methoxybenzamido)methyl)phenyl)-3-isopropyl-1H-pyrazole-5-carboxamide] | 3.6 nM | 115 nM | 47 nM | 55 nM | 5.6 nM
2 | CCOc1cc(CNC(=O)c2cc(F)ccc2OC)ccc1-n1nc(C(C)C)c(N)c1C(N)=O [Example A5, 4-amino-1-(2-ethoxy-4-((5-fluoro-2-methoxybenzamido)methyl)phenyl)-3-isopropyl-1H-pyrazole-5-carboxamide] | 11 nM |  | 240 nM |  | 11 nM
3 | COc1ccccc1C(=O)NCc1ccc(-n2nc(C(C)C)c(N)c2C(N)=O)cc1 [Example A9, 4-amino-3-isopropyl-1-(4-((2-methoxybenzamido)methyl)phenyl)-1H-pyrazole-5-carboxamide] | 14 nM | 170 nM | 140 nM | 84 nM | 14 nM
4 | CC(C)c1nn(-c2ccc(CNC(=O)c3cccc4c3OCC4)cc2)c(C(N)=O)c1N [Example A10, 4-amino-1-(4-((2,3-dihydrobenzofuran-7-carboxamido)methyl)phenyl)-3-isopropyl-1H-pyrazole-5-carboxamide] | 60 nM |  |  |  | 62 nM
5 | COc1ccc(F)cc1C(=O)NCc1ccc(-n2nc(C(C)C)c(N)c2C(N)=O)c(F)c1 [Example A11, 4-amino-1-(2-fluoro-4-((5-fluoro-2-methoxybenzamido)methyl)phenyl)-3-isopropyl-1H-pyrazole-5-carboxamide] | 27 nM |  |  |  | 35 nM
6 | COc1ccc(F)cc1C(=O)NCc1ccc(-n2nc(C3CCOCC3)c(N)c2C(N)=O)cc1 [Example A12, 4-amino-1-(4-((5-fluoro-2-methoxybenzamido)methyl)phenyl)-3-(tetrahydro-2H-pyran-4-yl)-1H-pyrazole-5-carboxamide] | 5.8 nM | 180 nM | 160 nM | 130 nM | 26 nM
7 | COc1ccc(F)cc1C(=O)NCc1ccc(-n2nc(C3CCCOC3)c(N)c2C(N)=O)cc1 (stereo not drawn) [Example A13, 4-amino-1-(4-((5-fluoro-2-methoxybenzamido)methyl)phenyl)-3-(tetrahydro-2H-pyran-3-yl)-1H-pyrazole-5-carboxamide] | 2.7 nM | 120 nM | 95 nM | 57 nM | 4.4 nM
8 | COc1ccc(F)cc1C(=O)NCc1ccc(-n2nc(-c3cccs3)c(N)c2C(N)=O)cc1 [Example A14, 4-amino-1-(4-((5-fluoro-2-methoxybenzamido)methyl)phenyl)-3-(thiophen-2-yl)-1H-pyrazole-5-carboxamide] | 3.1 nM | 210 nM | 95 nM | 81 nM | 7.9 nM
9 | COc1ccc(F)cc1C(=O)NCc1ccc(-n2nc(C3CCCC3)c(N)c2C(N)=O)cc1 [Example A15, 4-amino-3-cyclopentyl-1-(4-((5-fluoro-2-methoxybenzamido)methyl)phenyl)-1H-pyrazole-5-carboxamide] | 4.2 nM | 84 nM | 29 nM | 27 nM | 3.7 nM

Second part, the compound after the results:

Row | IC50 (BTK-C481S) | IC50 (BTK-C481S mutant) | IC50 [1] | IC50 (human BTK-WT) | IC50 (full-length human BTK-WT) | SMILES
10 | 11 nM | 230 nM | 120 nM | 120 nM | 15 nM | COc1ccc(F)cc1C(=O)NCc1ccc(-n2nc(C3CCOC3)c(N)c2C(N)=O)cc1 (stereo not drawn) [Example A16, 4-amino-1-(4-((5-fluoro-2-methoxybenzamido)methyl)phenyl)-3-(tetrahydrofuran-3-yl)-1H-pyrazole-5-carboxamide]
11 | 93 nM |  |  |  | 87 nM | COc1ccc(F)cc1C(=O)NCc1ccc(-n2nc(N3CCOCC3)c(N)c2C(N)=O)cc1 [Example A17, 4-amino-1-(4-((5-fluoro-2-methoxybenzamido)methyl)phenyl)-3-morpholino-1H-pyrazole-5-carboxamide]
12 | 68 nM |  |  |  | 63 nM | CCOc1cc(CNC(=O)c2cc(F)ccc2OC)cc(F)c1-n1nc(C(C)C)c(N)c1C(N)=O [Example A19, 4-amino-1-(2-ethoxy-6-fluoro-4-((5-fluoro-2-methoxybenzamido)methyl)phenyl)-3-isopropyl-1H-pyrazole-5-carboxamide]
13 | 8 nM | 120 nM | 110 nM | 74 nM | 8.1 nM | COc1ccc(F)cc1C(=O)NCc1ccc(-n2nc(C3CCC(F)(F)CC3)c(N)c2C(N)=O)cc1 [Example A22, 4-amino-3-(4,4-difluorocyclohexyl)-1-(4-((5-fluoro-2-methoxybenzamido)methyl)phenyl)-1H-pyrazole-5-carboxamide]
